From patent EP0108351A2, “Use of substituted malonic-acid derivatives as pesticides” (BAYER AG, priority 1982, dated 1984)

What was measured:
Type in all cases: in vivo
Plutella maculipennis = assay: Plutella test (cabbage leaves dipped, caterpillars placed on them); settings: cabbage leaves (Brassica oleracea) dipped; concentration and time not stated; compared with prior art
Excerpt: Lösungsmittel: 3 Gewichtsteile Dimethylformamid Emulgator : -1 Gewichtsteil Alkylarylpolyglykolether
(§1) Zur Herstellung einer zweckmäßigen Wirkstoffzubereitung vermischt man 1 Gewichtsteil Wirkstoff mit der angegebenen Menge Lösungsmittel und der angegebenen Menge Emulgator und verdünnt das Konzentrat mit Wasser auf die gewünschte Konzentration.
Kohlblätter (Brassica oleracea) werden durch Tauchen in die Wirkstoffzubereitung der gewünschten Konzentration behandelt und mit Raupen der Kohlschabe (Plutella maculipennis) besetzt, solange die Blätter noch feucht sind.
Nach der gewünschten Zeit wird die Abtötung in % bestimmt. Dabei bedeutet 100 %, daß alle Raupen abgetötet wurden; 0 % bedeutet, daß keine Raupen abgetötet wurden.

Tetranychus urticae = assay: Tetranychus test (resistant), infested bean plants dipped; settings: bean plants (Phaseolus vulgaris) dipped; all stages of mites; concentration and time not stated; compared with prior art
Excerpt: Lösungsmittel: 3 Gewichtsteile Dimethylformamid Emulgator: . 1 Gewichtsteil Alkylarylpolyglykolether
as §1
Bohnenpflanzen (Phaseolus vulgaris), die stark von allen Entwicklungsstadien der gemeinen Spinnmilbe oder Bohnenspinnmilbe (Tetranychus urticae) befallen sind, werden durch Tauchen in die Wirkstoffzubereitung der gewünschten Konzentration behandelt.
Nach der gewünschten Zeit wird die Abtötung in % bestimmt. Dabei bedeutet 100 %, daß alle Spinnmilben abgetötet wurden; 0 % bedeutet, daß keine Spinnmilben abgetötet wurden.

Myzus pesicae = assay: Limit concentration test / root-systemic action (Myzus); settings: compound mixed into soil, cabbage; leaves infested after 7 days, evaluated after 2 more days; concentration not given
Excerpt: Testinsekt: Myzus pesicae Lösungsmittel: 3 Gewichtsteile Aceton Emulgator: 1 Gewichtsteil Alkylarylpolyglykolether
(§2) Zur Herstellung einer zweckmäßigen Wirkstoffzubereitung vermischt man 1 Gewichtsteil Wirkstoff mit der angegebenen Menge Lösungsmittel, gibt die angegebene Menge Emulgator zu und verdünnt das Konzentrat mit Wasser auf die gewünschte Konzentration.
Die Wirkstoffzubereitung wird innig mit Boden vermischt. Dabei spielt die Konzentration des Wirkstoffs in der Zubereitung praktisch keine Rolle, entscheidend ist allein die Wirkstoffgewichtsmenge pro Volumeneinheit Boden, welche in ppm (= mg/1) angegeben wird. Man füllt den behandelten Boden in Töpfe und bepflanzt diese mit Kohl (Brassica oleracea). Der Wirkstoff kann so von den Pflanzenwurzeln aus dem Boden aufgenommen und in die Blätter transportiert werden.
Für den Nachweis des wurzelsystemischen Effektes werden nach 7 Tagen ausschließlich die Blätter mit den obengenannten Testtieren besetzt. Nach weiteren 2 Tagen erfolgt die Auswertung durch Zählen oder Schätzen der toten Tiere. Aus den Abtötungszahlen wird die wurzelsystemische Wirkung des Wirkstoffs abgeleitet. Sie ist 100 %, wenn alle Testtiere abgetötet sind und 0 %, wenn noch genau so viele Testinsekten leben wie bei der unbehandelten Kontrolle.

[1] = tested on: Phorbia antiqua (im Boden); assay: Limit concentration test / soil insects; settings: compound mixed into soil; insects added after 24 hours, evaluated after 2 to 7 more days; concentration not given
Excerpt: Testinsekt: Phorbia antiqua (im Boden) Lösungsmittel: 3 Gewichtsteile Aceton Emulgator: 1 Gewichtsteil Alkylarylpolyglykolether
as §2
Die Wirkstoffzubereitung wird innig mit dem Boden vermischt. Dabei spielt die Konzentration des Wirkstoffs in der Zubereitung praktisch keine Rolle, entscheidend ist allein die Wirkstoffgewichtsmenge pro Volumeneinheit Boden, welche in ppm (= mg/1) angegeben wird. Man füllt den Boden in Töpfe und läßt diese bei Raumtemperatur stehen.
Nach 24 Stunden werden die Testtiere in den behandelten Boden gegeben und nach weiteren 2 bis 7 Tagen wird der Wirkungsgrad des Wirkstoffs durch Auszählen der toten und lebenden Testinsekten in % bestimmt, Der Wirkungsgrad ist 100 %, wenn alle Testinsekten abgetötet worden sind, er ist O %, wenn noch genau so viele Testinsekten leben wie bei der unbehandelten Kontrolle.

[2] = tested on: Lucilia cuprina res.-Larven; assay: Test with Lucilia cuprina res. larvae; settings: Wirkstoffkonzentration 1000 ppm, after 24 hours, read-out: Abtötung
Description: Emulgator: 35 Gewichtsteile Ethylenglkolmonomethylether 35 Gewichtsteile Nonylphenolpolyglykolether
Zur Herstellung einer zweckmäßigen Wirkstoffzubereitung vermischt man drei Gewichtsteile Wirkstott mit sieben Gewichtsteilen des oben angegebenen Lösungsmittel-Gemisches und verdünnt das so erhaltene Konzentrat mit Wasser auf die jeweils gewünschte Konzentration.
Etwa 20 Lucilia cuprina res.-Larven werden in ein Teströhrchen gebracht, welches ca. 1 cm^2 Pferdefleisch und 0,5 ml der Wirkstoffzubereitung enthält. Nach 24 Stunden wird der Abtötungsgrad bestimmt.

Structure (SMILES)	Wirksamkeit gegenüber dem Stand der Technik (Abtötung in %) (Plutella maculipennis)	Wirksamkeit gegenüber dem Stand der Technik (Abtötung in %) (Tetranychus urticae)	wurzelsystemische Wirkung gegenüber dem Stand der Technik (Myzus pesicae)	Wirkungsgrad gegenüber dem Stand der Technik [1]	mortality at 1000 µg/mL [2]
COC(C(N)=O)(C(N)=O)c1ccc(Cl)c(Cl)c1 [Beispiel 1, 2-(3,4-Dichlorphenyl)-2-methoxy-malonsäurediamid]	überlegene Wirksamkeit gegenüber dem Stand der Technik	überlegene Wirksamkeit gegenüber dem Stand der Technik	überlegene Wirkung gegenüber dem Stand der Technik	überlegene Wirkung gegenüber dem Stand der Technik	
NC(=O)C(OC(=O)c1ccccc1Cl)C(=O)Nc1ccc(Cl)c(Cl)c1 (centres unmarked) [Beispiel 2, 3,4-Dichlorphenyl-(2-chlorbenzoyloxy)-malonsäurediamid]	überlegene Wirksamkeit gegenüber dem Stand der Technik				
NC(=O)C(OC(=O)c1ccccc1)(C(N)=O)c1ccc(Cl)c(Cl)c1 [Beispiel 3, 3,4-Dichlorphenylbenzoyloxymalonsäurediamid]	überlegene Wirksamkeit gegenüber dem Stand der Technik				
CC(=O)OC(C(N)=O)(C(N)=O)c1ccc(Cl)c(Cl)c1 [Beispiel 4, 3,4-Dichlorphenylacetoxymalonsäurediamid]	überlegene Wirksamkeit gegenüber dem Stand der Technik				
CNS(=O)(=O)OC(C(N)=O)(C(N)=O)c1ccc(Cl)c(Cl)c1 [Beispiel 5, 3,4-Dichlorphenylmethylsulfamoyloxymalonsäurediamid]	überlegene Wirksamkeit gegenüber dem Stand der Technik	überlegene Wirksamkeit gegenüber dem Stand der Technik			
CNC(=O)C(O)(C(N)=O)c1ccccc1 (centres unmarked) [Beispiel 27, Phenylhydroxymalonsäureamidmethylamid]			überlegene Wirkung gegenüber dem Stand der Technik		
NC(=O)C(O)(C(=O)[O-])c1ccccc1.[Na+] (centres unmarked) [Beispiel 33, Mononatriumsalzes des Phenylhydroxymalonsäuremonoamids]			überlegene Wirkung gegenüber dem Stand der Technik		
NC(=O)C(OSC(F)(Cl)Cl)(C(N)=O)c1ccc(Cl)c(Cl)c1 [Beispiel 36, 3,4-Dichlorphenyl-dichlorfluormethylsulfenyloxy-malonsäurediamid]	überlegene Wirksamkeit gegenüber dem Stand der Technik	überlegene Wirksamkeit gegenüber dem Stand der Technik			
NC(=O)C(O)(C(=O)NC=O)c1ccc(Cl)c(Cl)c1 (centres unmarked) [Beispiel 37, 3,4-Dichlorphenylhydroxymalonsäureamidformylamid]	überlegene Wirksamkeit gegenüber dem Stand der Technik	überlegene Wirksamkeit gegenüber dem Stand der Technik			
CC(=O)NC(=O)C(O)(C(N)=O)c1ccccc1 (centres unmarked) [Beispiel 38, Phenylhydroxymalonsäureamidacetylamid]	überlegene Wirksamkeit gegenüber dem Stand der Technik				
CC(=O)NC(=O)C(O)(C(N)=O)c1ccc(Cl)c(Cl)c1 (centres unmarked) [Beispiel 38a, 3,4-Dichlorphenylhydroxymalonsäureamidacetylamid]	überlegene Wirksamkeit gegenüber dem Stand der Technik			überlegene Wirkung gegenüber dem Stand der Technik	
CC(=O)NC(=O)C(OC(C)=O)(C(N)=O)c1ccc(Cl)c(Cl)c1 (centres unmarked) [Beispiel 39, 3,4-Dichlorphenylacetoxy-malonsäureamidacetylamid]	überlegene Wirksamkeit gegenüber dem Stand der Technik	überlegene Wirksamkeit gegenüber dem Stand der Technik		überlegene Wirkung gegenüber dem Stand der Technik	
CC(=O)NC(=O)C(OC(C)=O)(C(=O)NC(C)=O)c1ccc(Cl)c(Cl)c1 [Beispiel 40, 3,4-Dichlorphenyl-acetoxy-malonsäurebisacetylamid]	überlegene Wirksamkeit gegenüber dem Stand der Technik	überlegene Wirksamkeit gegenüber dem Stand der Technik		überlegene Wirkung gegenüber dem Stand der Technik	
CC(=O)NC(=O)C(OC(=O)c1ccccc1)(C(=O)NC(C)=O)c1ccc(Cl)c(Cl)c1 [Beispiel 41, 3,4-Dichlorphenylbenzoyloxymalonsäurebisacetylamid]	überlegene Wirksamkeit gegenüber dem Stand der Technik	überlegene Wirksamkeit gegenüber dem Stand der Technik			
C[Si](C)(C)OC(C(N)=O)(C(N)=O)c1ccc(Cl)c(Cl)c1 [Beispiel 47, 2-(3,4-Dichlorphenyl)-2-trimethylsilyloxy-malonsäurediamid]	überlegene Wirksamkeit gegenüber dem Stand der Technik	überlegene Wirksamkeit gegenüber dem Stand der Technik	überlegene Wirkung gegenüber dem Stand der Technik	überlegene Wirkung gegenüber dem Stand der Technik	100%
C[Si](C)(C)NC(=O)C(O[Si](C)(C)C)(C(=O)N[Si](C)(C)C)c1ccc(Cl)c(Cl)c1 [Beispiel 48]	überlegene Wirksamkeit gegenüber dem Stand der Technik	überlegene Wirksamkeit gegenüber dem Stand der Technik		überlegene Wirkung gegenüber dem Stand der Technik	
CC(C)(C)NC(=O)C(O)(C(=O)NC(C)(C)C)c1ccccc1 [Beispiel 52, Phenylhydroxymalonsäure-bis-tert.-butylamid]			überlegene Wirkung gegenüber dem Stand der Technik		
